The text below walks through data of US9539315B2, “Methods, agents and peptides for inhibiting matrix metalloproteinase-2 signaling” (New York University, priority 2011, dated 2017).

“Also recorded” adds a separate entry of the source.

In one experiment the test system is NF-κB pathway. Briefly: p50 nuclear translocation / NF-κB activation in DCs (ELISA of cytosolic and nuclear fractions). It is filed as cell-based, human. The settings on record: DCs exposed to MMP-2 (5 μm/ml) or zymosan (10 μm/ml); p50 by ELISA. As for the experimental part:
(§1) A) DCs were exposed to MMP-2 […] or zymosan […], a known activator of NF-κB that acts via TLR2, for the indicated time. Cytosolic and nuclear fractions were isolated and p50 contents were measured by ELISA. […] C) OX40L over-expression on DCs induced by MMP-2 is inhibited by an inhibitor of NEMO, the NEMO binding domain (NBD) peptide, but not by the corresponding negative control, a NBD mutant.
(§2) PBMCs were purified from healthy-(HD) or cord blood- (CB) donors and plated at 40×10^6 cells/10 mL/dish in complete IMDM with 5% PHS. Cells were allowed to adhere for 2 h at 37° C. Non-adherent cells were removed. The monocyte-enriched fraction was supplemented with 100 UI/mL rhGMCSF and 300 UI/mL rhIL-4 (R&D Systems) on days 0, 2 and 4. Immature DCs were harvested on day 5 and matured using poly(I:C) at 5 μg/mL/10^6 DCs (Amersham). Secretion of IL-12p70, TNFα, IL-1β, IL-6, IL-8 and IL-10 was assessed on both immature and mature DCs using the Human Inflammatory Cytokine Cytometric Bead Array (BD Pharmingen).
Activation of T cell clones (10,000 cells/100 μL/well), polyclonal T cell populations (100,000 cells/100 μL/well), and DCs (50,000 cells/100 μL/well) can be determined by ELISA. IFNγ (BioSource), TNFα (BioSource), IL-4 (BioSource), IFNβ (VeriKine; PBL interferon source) and MCP-3 (DuoSet; R&D Systems) contents in supernatants were measured according to the manufacturer's instructions. p50 was measured in cytosolic and nuclear fractions (fractions separated using the nuclear separation kit from Active motif) by ELISA (Active motif).
(In an ELISA, binding on a coated surface is turned into a signal by an enzyme label.)

The next experiment has as its target T1, human TLR-2 (Homo sapiens, UniProt O60603).
T1 construct: host or cells: HEK293 (HEK-Blue-hTLR2 cells)
The experiment can be described thus: HEK-Blue-hTLR2 NF-κB SEAP reporter assay. It is filed as cell-based. The settings on record: MMP-2 5 mg/ml; twenty hours; with/without TLR2 blocking antibody. As for the experimental part:
(§3) A) DCs were exposed to various TLR agonists for 2 days before cells were stained for OX40L. […] B) TLR2-transfected and engineered HEK cells were incubated with MMP-2 (5 mg/ml) or various controls. All conditions were also tested in the presence of a blocking antibody for TLR2. TNFα was used to activate NF-κB in a TLR-independent manner. Twenty hours later, NF-κB activation was measured.
TLR2-transfected and engineered HEK cells were incubated with MMP-2 (5 mg/ml), TLR2 agonists, recombinant PEX and 3 pools of overlapping 20-mers covering MMP-2. OLP1: mix of 22 overlapping peptides covering MMP-2 from amino-acid 1 to 220; OLP2: mix of 22 overlapping peptides covering MMP-2 from amino-acid 210 to 440; OLP3: mix of 22 overlapping peptides covering MMP-2 from amino-acid 450 to 660. Twenty hours later, NF-κB activation was measured. Neither PEX nor the peptides triggered NF-κB signaling.
TLR-2-transfected (stably) HEK-Blue™ Cells represent a very efficient high throughput reagent for screening due to an easy read-out. […] Levels of SEAP can be readily determined with QUANTI-Blue™, a detection medium that turns purple/blue in the presence of alkaline phosphatase. […] Inhibition of NF-κB activation by any agents/molecules can be assessed and confirmed in DCs (which endogenously express TLR2 or are engineered to express exogenous TLR2) in order to corroborate the initial screening results in a native or more natural context. […] TLR-2-expressing cells, such as those described herein, can be incubated with agents/molecules and molecular interactions assessed using methods, such as, e.g., co-immunoprecipitation of MMP-2 and TLR-2 from the cell lysates. […] Additional methods can be used to evaluate if MMP-2 and TLR-2 interact directly, including other affinity-based methods (e.g., affinity chromatography or panning), competitive inhibition assays, and various visualization techniques, such as fluorescence resonance energy transfer (FRET) and others which are known in the art. […]
A general note: A reporter such as luciferase makes a cellular process visible.

Another experiment deals with OX40L. The experiment can be described thus: OX40L expression on DCs (staining). It counts as cell-based, human. The following applies: DCs exposed for 2 days, stained for OX40L. How it is done: as §1, §3
Antibody to OX40L (11C3.1) was from Biolegend. Blocking antibodies to TLR-2 and TLR-6 were from Invivogen. Antibodies to GATA-3, IL-4 (8D4-8), IL-5 (JES1-39D10), IL-13 (JES10-5A2), TNFα (MAb11), IFNγ (25723.11), perforin (δG9), GranzymeB (GB11), CD40 (5C3), CD80 (L307.4), CD83 (HB15e), CD86 (IT2.2), HLA-DR (TU36), fluorescein isothiocyanate-conjugated antibodies to CD45RA (HI100) and CD45RO (UCHL1), and antibody to CD4 (RPA-T4) were purchased from BD Biosciences Pharmingen. Alexa fluor 488-conjugated antibody to IL-17 (eBio64DEC17), phycoerythrine-conjugated antibody to T-bet (4B10).
as §2

T1 sequence (O60603 21-784): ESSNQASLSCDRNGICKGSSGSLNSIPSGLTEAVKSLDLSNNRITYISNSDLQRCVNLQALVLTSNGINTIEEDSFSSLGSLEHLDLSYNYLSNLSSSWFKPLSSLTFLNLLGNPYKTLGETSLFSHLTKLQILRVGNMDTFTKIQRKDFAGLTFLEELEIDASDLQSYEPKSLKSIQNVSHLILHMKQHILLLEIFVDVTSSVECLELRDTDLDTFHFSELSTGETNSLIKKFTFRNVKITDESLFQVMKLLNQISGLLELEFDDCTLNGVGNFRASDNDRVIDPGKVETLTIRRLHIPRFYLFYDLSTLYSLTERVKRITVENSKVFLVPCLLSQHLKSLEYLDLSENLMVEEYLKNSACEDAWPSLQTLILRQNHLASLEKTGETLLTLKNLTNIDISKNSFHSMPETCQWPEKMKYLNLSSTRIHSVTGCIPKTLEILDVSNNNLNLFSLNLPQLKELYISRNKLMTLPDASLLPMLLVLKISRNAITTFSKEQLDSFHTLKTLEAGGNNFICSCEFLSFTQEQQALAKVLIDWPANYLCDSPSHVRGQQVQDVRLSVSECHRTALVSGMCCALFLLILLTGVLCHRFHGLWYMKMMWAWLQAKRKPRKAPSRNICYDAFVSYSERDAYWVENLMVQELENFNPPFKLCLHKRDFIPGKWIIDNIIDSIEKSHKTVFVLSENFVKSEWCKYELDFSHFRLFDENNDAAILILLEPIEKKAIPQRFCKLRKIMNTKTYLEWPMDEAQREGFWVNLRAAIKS

As to zymosan [reference compound], the “p50 translocation in the nucleus” value in the experiment on NF-κB pathway is given as “induce p50 translocation in the nucleus after 30 min”. For the same molecule, the “NF-κB activation in TLR2-transfected HEK cells” value on human TLR-2 is listed as “activate NF-κB in a TLR2-dependent manner”. Moreover, in the experiment with OX40L, the “OX40L expression on DCs” value is listed as “induce OX40L on DCs”.

B1: PEX: last third of MMP-2, amino acids 445-635 of SEQ ID NO: 1; recombinant (protein, listed as Homo sapiens)
chain: YGASPDIDLGTGPTPTLGPVTPEICKQDIVFDGIAQIRGEIFFFKDRFIWRTVTPRDKPMGPLLVATFWPELPEKIDAVYEAPQEEKAVFFAGNEYWIYSASTLERGYPKPLTSLGLPPDVQRVDAAFNWSKNKKTYIFAGDKFWRYNEVKKKMDPGFPKLIADAWNAIPDNLDAVVDLQGGGHSYFFKGA
Consider B1, for which the “NF-κB activation in TLR2-transfected HEK cells” value with human TLR-2 is “did not trigger TLR-2 activation; also recorded: do not trigger TLR2”.
